Structures can show the parent of a compound that is named as a salt. Where two headings read alike, the source gives them in different places.

For data set [1], the system named is apomorphine induced stereotypies. Nature of the data set: Block of apomorphine-induced stereotypies in rats (0-3 scale scoring). Type of data set: in vivo, Male Sprague-Dawley rats. The settings on record: for ED50: Rattus norvegicus, 1 h; for Stereotypies ED50: rat, hydrochloride, 60 min. The method, then: Male Sprague-Dawley rats weighing 225-275 g were used. […] The compounds were injected 60 minutes prior to apomorphine hydrochloride (1 mg/kg) which was injected subcutaneously into the neck. […] Directly after injection, the animals were placed in the cages, one in each cage. Scoring of the stereotypies were performed by two separate methods. The first scoring system was a modified version of the system introduced by Costall and Naylor (1973). […] Chewing, biting and | licking. In the second system the number of animals displaying hyperactivity caused by apomorphine were scored. […] Saline controls were always run simultaneously.

In data set [2] the test system is apomorphine induced hyperactivity. Nature of the data set: Block of apomorphine-induced hyperactivity in rats (number of animals displaying hyperactivity). Type of data set: in vivo, Male Sprague-Dawley rats. The following applies: for ED50: Rattus norvegicus, 1 h. As to the method:
Male Sprague-Dawley rats weighing 225-275 g were used. […] The compounds were injected 60 minutes prior to apomorphine hydrochloride (1 mg/kg) which was injected subcutaneously into the neck.
Directly after injection, the animals were placed in the cages, one in each cage. Scoring of the stereotypies were performed by two separate methods. The first scoring system was a modified version of the system introduced by Costall and Naylor (1973). The strength of the stereotypy was scored on a 0-3 scale as follows:
In the second system the number of animals displaying hyperactivity caused by apomorphine were scored. […] Saline controls were always run simultaneously. ED50 's are in the first scoring system (0-3 scale), the doses which reduce the strength of the stereotypies by 50% over the observation period of 60 minutes. ED50 's of the second scoring system are the doses which reduce the number of animals showing hyperactivity by 50% over the observation period of 60 minutes.

For data set [3], the system named is DA receptors in the brain. Nature of the data set: Apomorphine antagonism in rats (stereotypies and hyperactivity together, results in words). Type of data set: in vivo, Male Sprague-Dawley rats. The following applies: rat, p.o., Table 3.
For data set [4] the following is noted: experimental animals; cited from earlier work.
The conditions of data set [5]: in vivo; cited from earlier work.
Where [6] appears, read: ip, i.p., 60 min before apomorphine hydrochloride 1 mg/kg s.c., 60 min observation, read-out: Stereotypies ED50.
Setting [7] is: po, p.o., same test system, read-out: Stereotypies ED50.
The mark [8] stands for this setting: po, p.o., same test system, read-out: Stereotypies ED50 (in parentheses, mg/kg).
Setting [9] is: ip, i.p., 60 min before apomorphine hydrochloride 1 mg/kg s.c., 60 min observation, read-out: Hyperactivity ED50.
The mark [10] stands for this setting: po, p.o., same test system, read-out: Hypractivity ED50.
The mark [11] stands for this setting: po, p.o., same test system, read-out: Hypractivity ED50 (in parentheses, mg/kg).
Where [12] appears, read: i.p., 60 min before apomorphine hydrochloride 1 mg/kg s.c., 60 min observation.

Take `CCN1CCCC1CNC(=O)c1c(OC)ccc(Br)c1OC.Cl` (racemic) [Example 7, N-Ethyl-2-(3-bromo-2,6-dimethoxybenzamidomethyl)pyrrolidine hydrochloride]: the ED50 in data set [1] (setting [6]) came out at 23 µmol/kg; in data set [1] (setting [7]) it was 47 µmol/kg; in data set [1] (setting [8]) it was 19 mg/kg; in data set [2] (setting [9]) it was 11 µmol/kg; in data set [2] (setting [10]) it was 17 µmol/kg; in data set [2] (setting [11]) it was 7 mg/kg.
Turning to `CCN1CCCC1CNC(=O)c1c(OC)ccc(Cl)c1OC` (racemic) [Example 8, N-Ethyl-2-(3-chloro-2,6-dimethoxybenzamidomethyl)pyrrolidine hydrochloride], the values for the ED50 in data set [1] (setting [6]) and in data set [2] (setting [9]) were 47 µmol/kg and 30 µmol/kg, respectively.
In the case of `CCN1CCCC1CNC(=O)c1c(OC)c(Br)cc(Br)c1OC.Cl` (racemic) [Example 9, N-Ethyl-2-(3,5-dibromo-2,6-dimethoxybenzamidomethyl) pyrrolidine hydrochloride], the ED50 was 5.3 µmol/kg in data set [1] (setting [6]); 8.2 µmol/kg in data set [1] (setting [7]); 4 mg/kg in data set [1] (setting [8]); 1.8 µmol/kg in data set [2] (setting [9]); 5.5 µmol/kg in data set [2] (setting [10]); 2.7 mg/kg in data set [2] (setting [11]).
As to `CCN1CCCC1CNC(=O)c1c(OC)c(Cl)cc(Cl)c1OC` (racemic) [Example 10, N-Ethyl-2-(3,5-dichloro-2,6-dimethoxybenzamidomethyl) pyrrolidine], the ED50 in data set [1] (setting [6]) worked out at 5.8 µmol/kg; in data set [2] (setting [9]), 3 µmol/kg.
As to `CCN1CCCC1CNC(=O)c1c(OC)c(Cl)cc(Br)c1OC` (racemic) [Example 11, N-Ethyl-2-(3-bromo-5-chloro-2,6-dimethoxybenzamidomethyl) pyrrolidine], the ED50 in data set [1] (setting [6]) came to 6.2 µmol/kg; in data set [2] (setting [9]), 3.9 µmol/kg.
As for `CCN1CCCC1CNC(=O)c1c(OC)c(Br)cc(Br)c1OC` (single isomer, unassigned) [Example 12, N-Ethyl-2-(3,5-dibromo-2,6-dimethoxybenzamidomethyl) pyrrolidine], the figures for the ED50 in data set [1] (setting [6]) and in data set [2] (setting [9]) were above 178 µmol/kg and around 11 µmol/kg, respectively.
For the molecule `CCN1CCCC1CNC(=O)c1c(OC)c(Br)cc(Br)c1OC` (single isomer, unassigned) [Example 13, N-Ethyl-2-(3,5-dibromo-2,6-dimethoxybenzamidomethyl) pyrrolidine hydrochloride], the ED50 in data set [1] (setting [6]) worked out at 3.3 µmol/kg; in data set [2] (setting [9]), 0.33 µmol/kg.
Turning to `CCN1CCCC1CNC(=O)c1c(OC)ccc(Br)c1OC.Cl` (single isomer, unassigned) [Example 14, N-Ethyl-2-(3-bromo-2,6-dimethoxybenzamidomethyl) pyrrolidine hydrochloride], in data set [1] (setting [12]), the “Stereotypies ED50” value is 5.6 µmol/kg.
On to `CCN1CCCC1CNC(=O)c1c(OC)ccc(Br)c1OC.Cl` (single isomer, unassigned) [Example 15, N-Ethyl-2-(3-bromo-2,6-dimethoxybenzamidomethyl) pyrrolidine hydrochloride], for which, in data set [1] (setting [12]), the “Stereotypies ED50” value was above 196 µmol/kg. For the same molecule, in data set [2] (rat, i.p., 60 min before apomorphine hydrochloride 1 mg/kg s.c., 60 min observation, hydrochloride, 60 min), the “Hyperactivity ED50” value is ~ 123 μmol/kg.
As to `CCN1CCCC1CNC(=O)c1cc(S(N)(=O)=O)ccc1OC` (stereo not shown) [Sulpiride, reference compound], the ED50 was 293 µmol/kg in data set [1] (setting [6]); above 586 µmol/kg in data set [1] (setting [7]); above 200 mg/kg in data set [1] (setting [8]); 50 µmol/kg in data set [2] (setting [9]); above 586 µmol/kg in data set [2] (setting [10]); above 200 mg/kg in data set [2] (setting [11]). Besides, in data set [3], the “activity after oral administration” value was “lost all activity”. Moreover, the catalepsy entry in data set [4] was “weak catalepsy”. For the same molecule, the extrapyramidal side effects result in data set [5] was “weak extrapyramidal side effects”.

(Values after patent publication US4232037A, “2,6-Dialkoxybenzamides, intermediates, pharamaceutical compositions and methods for treatment of psychotic disorders” (priority 1978, dated 1980).)
